Measurements: patent US8648116B2, “Derivatives of N-(arylamino) sulfonamides including polymorphs as inhibitors of MEK as well as compositions, methods of use and methods for preparing the same” (Ardea Biosciences, Inc., priority 2005, dated 2014)
Read-outs that look alike come from different tables or passages of the source.

Legend:
[1] = test system: A375 melanoma cells; assay: Anchorage-dependent growth inhibition (CellTiterGlo/ATP, 48 hr); assay type: cell-based, human
[2] = test system: Colo205 cells; assay: Anchorage-independent growth inhibition (MTS, 7 days); assay type: cell-based, human
Protocol: Wells of an “ultra low binding” plate (Corning, Acton Mass.) were filled with 60 μl of a 0.15% agarose solution in complete RPMI. Then, 60 μl complete RPMI containing 9000 Colo205 cells in 0.15% agarose was added per well. After 24 hr, 60 μl of a 3× drug solution in agarose free complete RPMI was added. After 7 days, 36 μl 6×MTS reagent (CellTiter 96 Aqueous, Promega, Madison, Wis.) was added per well. After 2 hr at 37° C., absorbance at 490 nm was determined on the M5 plate reader (Molecular Devices, Sunnyvale, Calif.).
Viability was determined by MTS assay.

[3] = test system: rat hepatocytes; assay: Primary hepatocyte toxicity (AK release, ATP, 48 hr); assay type: cell-based; conditions: for AK release (% Cell Survival) Hepatocytes Rat / ATP (% Cell Survival) Hepatocytes Rat: 48 hr
Protocol: Cryopreserved rat hepatocytes were obtained from CellzDirect (Austin, Tex.) and plated on collagen coated 96-well plates according to manufacturer's instructions. Drug was added 4 hr after plating (final DMSO concentration 0.5%).
(§1) After 48 hr, supernatant AK levels were determined using Toxilight, and cellular ATP levels were determined using CellTiterGlo. Full kill values were determined using 15 μM VRX-14686.

[4] = test system: human hepatocytes; assay: as above; assay type: cell-based
Protocol: Plated human hepatocytes were obtained from CellzDirect and processed according to manufacturer's instructions.
as §1

[5] = test system: human renal proximal tubule epithelial cells (RPTEC); assay: Renal cell toxicity (AK release, ATP, 48 hr); assay type: cell-based
Protocol: Cryopreserved human renal proximal tubule epithelial cells (RPTEC) were obtained from Cambrex and were processed according to manufacturer's instructions. Cells were expanded for 4 days and then plated in 96-well plates at 50,000 cells/well for drug exposure.
as §1

[6] = Plasma concentrations in mice (Example 94F); assay type: in vivo, nu/nu mice; conditions: for Cmin / Cmin Free Fraction / AUC / Cmax: A375-bearing nu/nu mice; for AUC / Cmax: female, nu/nu, mouse, plasma, po
[7] = test system: orthotopic Hep3B2.1-7 human hepatic carcinoma; assay: Growth response of orthotopic Hep3B tumors in nude mice; assay type: in vivo, BALB/c nu/nu mice
Protocol: Female BALB/c nu/nu mice (University of Adelaide, Waite Campus, SA, Australia), aged 10-14 weeks, with a body weight range: of 19.1-29.94 g (mean 22.95 g) were used for the study. The mice were divided into 6 Study groups (4 treatment groups and 2 control groups) as follows: • Number of Mice per Group: 10 in Groups 1 to 5 inclusive • 15 in ‘Take-Rate’ Control Group (Group 6)
Hep3B human hepatic carcinoma cells (Passage 2 from working stock VP-Stock 353) were cultured in RPMI1640 cell culture medium, which was supplemented with 10% FBS and penicillin-streptomycin (501 U/mL final concentration). The cells were harvested by trypsinisation, washed twice in HBSS and counted. The cells were then resuspended in HBSS:Matrigel (1:1, v/v) and adjusted to a final volume containing 1×10^8 cells/mL. Prior to inoculation, the incision site was liberally swabbed with alcohol and an incision made through the abdominal wall to expose the liver. The needle was introduced through the surface of the liver where 10 μL of cells (1×10^6 cells) were discharged. The needle was held in this position for approximately 30 seconds to allow the Matrigel® to polymerize in order to avoid leakage of tumor cells into the abdominal cavity.
Treatment commenced 14 days post-inoculation. On Day 7 of the study (21 days post-inoculation), all mice from the ‘Take-Rate’ control group were culled and the livers visually assessed for the presence of tumors.
A stock solution was prepared weekly and stored at 4° C. Dosing solutions were prepared on each day of administration. […] The compound was administered at doses of 2, 10 and 50 mg/kg.
Liver and tumor wet weight were measured when each were excised post-mortem on the termination day of the study. At the termination of the study, livers were excised from all mice in each study group and weighed. The number of visible tumors, if present, was counted. These tumors were removed from the liver and weighed.
A One-Way Analysis of Variance (ANOVA) (All Pairwise Multiple Comparison Procedure and Multiple Comparison versus Control Group) was performed on liver weight and tumor weight data at the end of the study. […] The same statistical analyses were performed on the data for the tumor-bearing mice in the study.

[8] = test system: Colo205 colon cancer cells; assay: Anchorage-dependent growth inhibition (CellTiterGlo/ATP, 48 hr)
Protocol: (§2) Cells were maintained at 37° C., 5% CO2, and 100% humidity. Colo205 cells were maintained in RPMI supplemented with 10% fetal bovine serum, glutamine (2 mM), penicillin (100 U/ml), and streptomycin (100 μg/ml). For growth inhibition experiments, cells were plated in white 384-well microplates at 1000 cells/20 dwell. After 24 hr, 5 μl of a 5× drug stock solution was added. All drugs were initially prepared as 200× stocks in DMSO, such that final DMSO concentration was 0.5%. Cells were incubated for 48 hr at 37° C. and ATP levels were determined using CellTiterGlo (Promega, Madison, Wis.). […] Non-linear curve-fitting was performed using GraphPad Prism 4 (GraphPad Software, San Diego, Calif.).

[9] = test system: HT29 colon cells; assay: as above
Protocol: as §2

[10] = test system: A431 epidermoid cells; assay: as above
Protocol: as §2

[11] = oral, column 1, no head (b1249 order: 50 mg/kg QD)
[12] = oral, column 2, no head (b1249 order: 25 mg/kg BID)
[13] = oral, column 3, no head (b1249 order: second 50 mg/kg QD)
[14] = oral, column 4, no head (b1249 order: 12.5 mg/kg BID)
[15] = 50 mg/kg, oral, column 1, no head (b1249 order: 50 mg/kg QD)
[16] = 50 mg/kg, oral, column 3, no head (b1249 order: second 50 mg/kg QD)
[17] = Compound A 2 mg/kg p.o. once daily Day 0 to 18, tumor-bearing mice
[18] = Compound A 10 mg/kg p.o. once daily Day 0 to 18, tumor-bearing mice
[19] = Compound A 50 mg/kg p.o. once daily Day 0 to 18, tumor-bearing mice

Compound: COc1cc(F)c(F)c(Nc2ccc(I)cc2F)c1NS(=O)(=O)C1(C[C@H](O)CO)CC1 [Compound A]
- GI50 ([1]; Homo sapiens, A-375, A375 Melanoma, BRAF V600E, 48 hr, CellTiterGlo, read-out: Anchorage-Dependent GI50 (nM ± sd)): 67 ± 12 nM
- GI50 ([2]; Homo sapiens, COLO 205, 168 h, Colo205 Colon, BRAF V600E, 0.15% agarose, read-out: Anchorage-Independent GI50 (nM ± sd)): 33 ± 16 nM
- AK release (% Cell Survival) Hepatocytes Rat ([3]; Compound A 1.1 (μM)): 96%
- ATP (% Cell Survival) Hepatocytes Rat ([3]; Compound A 1.1 (μM)): 114%
- AK release (% Cell Survival) Hepatocytes Rat ([3]; Compound A 3.3 (μM)): 97%
- ATP (% Cell Survival) Hepatocytes Rat ([3]; Compound A 3.3 (μM)): 87%
- AK release (% Cell Survival) Hepatocytes Rat ([3]; Compound A 10.0 (μM)): 93%
- ATP (% Cell Survival) Hepatocytes Rat ([3]; Compound A 10.0 (μM)): 72%
- AK release (% Cell Survival) Hepatocytes Rat ([3]; Compound A 30.0 (μM)): 91%
- ATP (% Cell Survival) Hepatocytes Rat ([3]; Compound A 30.0 (μM)): 57%
- AK release (% Cell Survival) Hepatocytes Human ([4]; Compound A 1.1 (μM), 48 hr): 92%
- ATP (% Cell Survival) Hepatocytes Human ([4]; Compound A 1.1 (μM), 48 hr): 108%
- AK release (% Cell Survival) Hepatocytes Human ([4]; Compound A 3.3 (μM), 48 hr): 102%
- ATP (% Cell Survival) Hepatocytes Human ([4]; Compound A 3.3 (μM), 48 hr): 104%
- AK release (% Cell Survival) Hepatocytes Human ([4]; Compound A 10.0 (μM), 48 hr): 112%
- ATP (% Cell Survival) Hepatocytes Human ([4]; Compound A 10.0 (μM), 48 hr): 107%
- AK release (% Cell Survival) Hepatocytes Human ([4]; Compound A 30.0 (μM), 48 hr): 109%
- ATP (% Cell Survival) Hepatocytes Human ([4]; Compound A 30.0 (μM), 48 hr): 81%
- AK release (% Cell Survival) RPTEC Human ([5]; Compound A 1.1 (μM), 48 hr): 96%
- ATP (% Cell Survival) RPTEC Human ([5]; Compound A 1.1 (μM), 48 hr): 94%
- AK release (% Cell Survival) RPTEC Human ([5]; Compound A 3.3 (μM), 48 hr): 95%
- ATP (% Cell Survival) RPTEC Human ([5]; Compound A 3.3 (μM), 48 hr): 91%
- AK release (% Cell Survival) RPTEC Human ([5]; Compound A 10.0 (μM), 48 hr): 99%
- ATP (% Cell Survival) RPTEC Human ([5]; Compound A 10.0 (μM), 48 hr): 85%
- AK release (% Cell Survival) RPTEC Human ([5]; Compound A 30.0 (μM), 48 hr): 41%
- ATP (% Cell Survival) RPTEC Human ([5]; Compound A 30.0 (μM), 48 hr): 34%
- Cmin [6, 11]: 60 ng/mL
- Cmin Free Fraction [6, 11]: 0.117 ng/mL
- Cmin [6, 12]: 1240 ng/mL
- Cmin Free Fraction [6, 12]: 2.48 ng/mL
- Cmin [6, 13]: 30 ng/mL
- Cmin Free Fraction [6, 13]: 0.059 ng/mL
- Cmin [6, 14]: 490 ng/mL
- Cmin Free Fraction [6, 14]: 0.986 ng/mL
- AUC ([6]; 12.5 mg/kg): 78000 ng·h/mL
- Cmax ([6]; 12.5 mg/kg): 7800 ng/mL
- AUC ([6]; 25 mg/kg): 117000 ng·h/mL
- Cmax ([6]; 25 mg/kg): 10200 ng/mL
- AUC [6, 15]: 132000 ng·h/mL
- Cmax [6, 15]: 23800 ng/mL
- AUC [6, 16]: 66500 ng·h/mL
- Cmax [6, 16]: 11900 ng/mL
- No. of Mice with Tumors (out of 10) ([7]; Compound A 2 mg/kg p.o. once daily Day 0 to 18): 6
- Average Liver Weight [7, 17]: 2.775 g
- Average Tumor Weight [7, 17]: 1.776 g
- No. of Mice with Tumors (out of 10) ([7]; Compound A 10 mg/kg p.o. once daily Day 0 to 18): 7
- Average Liver Weight [7, 18]: 2.551 g
- Average Tumor Weight [7, 18]: 1.407 g
- No. of Mice with Tumors (out of 10) ([7]; Compound A 50 mg/kg p.o. once daily Day 0 to 18): 4
- Average Liver Weight [7, 19]: 1.677 g
- Average Tumor Weight [7, 19]: 0.624 g
- GI50 ([8]; Homo sapiens, COLO 205, 48 h, read-out: Anchorage-Dependent GI50 (nM ± sd)): 74 ± 45 nM
- GI50 ([9]; Homo sapiens, HT-29, 48 h, read-out: Anchorage-Dependent GI50 (nM ± sd)): 70 ± 12 nM
- GI50 ([10]; Homo sapiens, A-431, 48 h, read-out: Anchorage-Dependent GI50 (nM ± sd)): > 10000 nM

Compound: COc1cc(F)c(F)c(Nc2ccc(I)cc2F)c1NS(=O)(=O)C1(C[C@H](O)CO)CC1
- GI50 ([1]; A375, 48 hr, ATP content, mean of at least three experiments, read-out: Mean GI50): 71 nM
- GI50 ([1]; A375, separate study, 48 hr, ATP content, read-out: GI50): 56 nM
- ATP, Cell viability, % Control ([1]; A375 cells, 1 uM, 48 hr): 27%
- GI50 ([2]; Colo205, anchorage independent, read-out: Mean GI50): 40 nM
- GI50 ([2]; human colorectal carcinoma Colo205 cells, read-out: GI50, anchorage independent growth (FIG. 12A)): 11 nM
- cytotoxicity ([3]; rat hepatocytes): little cytotoxicity
- survival ([4]; freshly plated primary human hepatocytes, 30 μM, 48 hr): 81%
- cytotoxicity ([4]; primary normal human hepatocytes): little cytotoxicity
- ATP depletion and cell lysis ([5]; RPTEC cells, 48 hr, cell lysis at 30 W (so in the source)): dose dependent ATP depletion and evident cell lysis
- cytotoxicity ([5]; human renal proximal tubule epithelial cells): little cytotoxicity
- half-life ([6]; mouse efficacy model, typical range): 2 to 3 h
- liver and tumor weight ([7]; 2, 10 and 50 mg/kg p.o. once daily): dose-dependent trend in the decrease
- average weight of the tumors vs Vehicle Control ([7]; tumor-bearing mice, 10 mg/kg p.o. once daily): significantly different
- average weight of the tumors vs Vehicle Control ([7]; tumor-bearing mice, 50 mg/kg p.o. once daily): significantly different
- average weight of the liver vs Vehicle Control ([7]; tumor-bearing mice, 50 mg/kg p.o. once daily, p<0.05): significantly different
- GI50 ([8]; Colo205, separate study, 48 hr, ATP content): 27 nM
- GI50 ([8]; read-out: Mean GI50, Colo205, 48 hr, ATP content, mean of at least three experiments): 89 nM
- GI50 ([9]; read-out: Mean GI50, HT29, 48 hr, ATP content, mean of at least three experiments): 70 nM
- GI50 ([10]; read-out: Mean GI50, A431, 48 hr, ATP content, mean of at least three experiments): 86 nM
